Experimental data as given in the kinase profiling compilation of Christmann-Franck et al. (2016).
Where “and” joins values, the source holds several entries; their conditions need not be identical. Equal entries are not always repeated.

Key:
Assay in all cases: radiometric filter-binding kinase assay, Kinaseprofiler
IKBKB (human) = IKBKB (human) (UniProt O14920); conditions: compound 1.0 µM; ATP 10 µM
PRKCE (human) = PRKCE (human) (UniProt Q02156); conditions: compound 1.0 µM; ATP 45 µM
PTK2B (human) = PTK2B (human) (UniProt Q14289); conditions: compound 1.0 µM; ATP 90 µM
MAPK11 (human) = MAPK11 (human) (UniProt Q15759); conditions: compound 1.0 µM; ATP 45 µM
STK33 (human) = STK33 (human) (UniProt Q9BYT3); conditions: compound 1.0 µM; ATP 155 µM
Chain of STK33 (human) (Q9BYT3 whole entry, looked up): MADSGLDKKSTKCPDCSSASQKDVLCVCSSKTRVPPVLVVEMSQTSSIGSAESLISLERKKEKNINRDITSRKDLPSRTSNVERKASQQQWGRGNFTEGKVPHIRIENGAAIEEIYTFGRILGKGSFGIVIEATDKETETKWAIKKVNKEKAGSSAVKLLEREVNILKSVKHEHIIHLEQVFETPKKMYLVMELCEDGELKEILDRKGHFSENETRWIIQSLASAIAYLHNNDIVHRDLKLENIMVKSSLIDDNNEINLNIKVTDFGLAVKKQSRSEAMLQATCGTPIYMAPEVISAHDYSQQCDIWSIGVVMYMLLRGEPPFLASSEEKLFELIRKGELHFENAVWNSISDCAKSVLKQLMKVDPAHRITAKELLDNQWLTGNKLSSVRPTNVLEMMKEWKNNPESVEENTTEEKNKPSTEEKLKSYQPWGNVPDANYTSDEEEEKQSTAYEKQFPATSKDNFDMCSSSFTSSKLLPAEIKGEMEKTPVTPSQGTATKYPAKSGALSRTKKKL

EPHA1 (human) = EPHA1 (human) (UniProt P21709); conditions: compound 1.0 µM; ATP 45 µM
SRPK1 (human) = SRPK1 (human) (UniProt Q96SB4); conditions: compound 1.0 µM; ATP 10 µM
Chain of SRPK1 (human) (Q96SB4 whole entry, looked up): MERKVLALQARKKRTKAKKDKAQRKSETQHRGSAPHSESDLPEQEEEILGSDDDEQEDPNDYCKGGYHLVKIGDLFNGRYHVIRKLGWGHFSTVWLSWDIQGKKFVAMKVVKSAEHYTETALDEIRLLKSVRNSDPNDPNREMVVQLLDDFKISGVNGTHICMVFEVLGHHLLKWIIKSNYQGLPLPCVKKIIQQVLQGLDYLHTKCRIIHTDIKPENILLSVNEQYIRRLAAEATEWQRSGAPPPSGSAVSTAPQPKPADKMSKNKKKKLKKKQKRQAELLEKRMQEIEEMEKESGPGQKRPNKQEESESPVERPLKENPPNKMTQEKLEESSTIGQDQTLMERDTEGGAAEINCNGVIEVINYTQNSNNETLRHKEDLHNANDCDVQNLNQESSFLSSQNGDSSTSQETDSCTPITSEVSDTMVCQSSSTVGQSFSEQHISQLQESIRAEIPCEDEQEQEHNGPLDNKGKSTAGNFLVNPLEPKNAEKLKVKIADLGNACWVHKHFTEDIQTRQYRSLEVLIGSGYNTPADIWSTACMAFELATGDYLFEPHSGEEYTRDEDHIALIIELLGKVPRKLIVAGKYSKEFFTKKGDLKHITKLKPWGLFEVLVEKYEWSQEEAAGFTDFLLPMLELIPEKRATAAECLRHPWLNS

FRK (human) = FRK (human) (UniProt P42685); conditions: compound 1.0 µM; ATP 155 µM
Chain of FRK (human) (P42685 whole entry, looked up): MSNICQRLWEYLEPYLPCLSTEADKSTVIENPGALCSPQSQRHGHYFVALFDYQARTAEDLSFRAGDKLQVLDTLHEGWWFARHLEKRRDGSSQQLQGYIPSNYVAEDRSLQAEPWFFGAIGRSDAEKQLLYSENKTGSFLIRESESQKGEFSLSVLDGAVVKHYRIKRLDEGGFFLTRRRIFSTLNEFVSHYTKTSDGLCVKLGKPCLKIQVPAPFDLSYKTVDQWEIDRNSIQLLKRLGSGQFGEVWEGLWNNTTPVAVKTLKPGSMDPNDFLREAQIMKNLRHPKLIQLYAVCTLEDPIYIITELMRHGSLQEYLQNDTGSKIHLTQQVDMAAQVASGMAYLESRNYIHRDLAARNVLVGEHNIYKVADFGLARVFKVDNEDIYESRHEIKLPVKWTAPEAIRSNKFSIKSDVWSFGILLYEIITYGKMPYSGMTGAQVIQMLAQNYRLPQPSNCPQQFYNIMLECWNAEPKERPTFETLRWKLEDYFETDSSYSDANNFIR

PRKCG (human) = PRKCG (human) (UniProt P05129); conditions: compound 1.0 µM; ATP 15 µM
EPHA3 (human) = EPHA3 (human) (UniProt P29320); conditions: compound 1.0 µM; ATP 120 µM
FLT3 (human) = FLT3 (human) (UniProt P36888); conditions: compound 1.0 µM; ATP 200 µM
CDK5 CDK5R1 p35 (human) = CDK5 CDK5R1 p35 (human) (UniProt Q00535+Q15078); conditions: compound 1.0 µM; ATP 15 µM
PRKCD (human) = PRKCD (human) (UniProt Q05655); conditions: compound 1.0 µM; ATP 15 µM
PRKCA (human) = PRKCA (human) (UniProt P17252); conditions: compound 1.0 µM; ATP 45 µM
KIT (human) = KIT (human) (UniProt P10721); conditions: compound 1.0 µM; ATP 200 µM
[1] = tested on: BLK (human), P51451 [M278V]; conditions: compound 1.0 µM; ATP 45 µM
[2] = tested on: MAPK9 (human), P45984 [S51N]; conditions: compound 1.0 µM; ATP 45 µM
FER (human) = FER (human) (UniProt P16591); conditions: compound 1.0 µM; ATP 70 µM
NLK (human) = NLK (human) (UniProt Q9UBE8); conditions: compound 1.0 µM; ATP 200 µM
[3] = tested on: SGK2 (human), Q9HBY8 [S416D]; conditions: compound 1.0 µM; ATP 15 µM
Chain of SGK2 (human), Q9HBY8 [S416D] (Q9HBY8 whole entry, looked up, stated change not applied): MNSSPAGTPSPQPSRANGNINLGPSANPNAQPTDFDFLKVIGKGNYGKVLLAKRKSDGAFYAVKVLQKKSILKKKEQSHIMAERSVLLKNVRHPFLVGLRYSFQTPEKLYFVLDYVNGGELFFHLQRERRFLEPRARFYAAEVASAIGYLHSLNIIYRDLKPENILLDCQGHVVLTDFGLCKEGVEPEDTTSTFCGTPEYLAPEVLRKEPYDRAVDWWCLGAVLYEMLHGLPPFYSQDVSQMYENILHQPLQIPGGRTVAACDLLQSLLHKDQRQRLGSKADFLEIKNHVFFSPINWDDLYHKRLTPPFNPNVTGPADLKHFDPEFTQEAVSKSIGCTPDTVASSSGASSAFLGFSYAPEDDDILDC

ALK (human) = ALK (human) (UniProt Q9UM73); conditions: compound 1.0 µM; ATP 200 µM
PRKG1 (human) = PRKG1 (human) (UniProt Q13976); conditions: compound 1.0 µM; ATP 90 µM
Chain of PRKG1 (human) (Q13976 whole entry, looked up): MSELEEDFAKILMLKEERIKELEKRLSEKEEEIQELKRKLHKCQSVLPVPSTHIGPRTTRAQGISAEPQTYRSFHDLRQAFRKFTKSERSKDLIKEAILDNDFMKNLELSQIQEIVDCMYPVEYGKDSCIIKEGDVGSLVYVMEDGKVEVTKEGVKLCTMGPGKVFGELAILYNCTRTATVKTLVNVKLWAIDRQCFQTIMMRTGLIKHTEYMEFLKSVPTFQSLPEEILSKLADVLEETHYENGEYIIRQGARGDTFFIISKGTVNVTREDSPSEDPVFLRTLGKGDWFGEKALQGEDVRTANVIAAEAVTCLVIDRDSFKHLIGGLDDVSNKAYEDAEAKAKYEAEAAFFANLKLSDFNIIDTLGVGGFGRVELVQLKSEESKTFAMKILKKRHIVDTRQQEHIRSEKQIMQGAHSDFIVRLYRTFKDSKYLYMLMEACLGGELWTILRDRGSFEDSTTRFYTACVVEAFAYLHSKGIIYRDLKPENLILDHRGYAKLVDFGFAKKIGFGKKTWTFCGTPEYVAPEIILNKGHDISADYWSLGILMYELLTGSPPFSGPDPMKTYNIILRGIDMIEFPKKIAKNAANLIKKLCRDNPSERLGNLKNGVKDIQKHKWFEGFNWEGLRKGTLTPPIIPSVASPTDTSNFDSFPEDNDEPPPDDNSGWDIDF

MAP3K5 (human) = MAP3K5 (human) (UniProt Q99683); conditions: compound 1.0 µM; ATP 200 µM
MINK1 (human) = MINK1 (human) (UniProt Q8N4C8); conditions: compound 1.0 µM; ATP 185 µM
RPS6KA3 KD1 KD2 (human) = RPS6KA3 KD1 KD2 (human) (UniProt P51812); conditions: compound 1.0 µM; ATP 10 µM
[4] = tested on: MAPK14 (human), Q16539 [T106M]; conditions: compound 1.0 µM; ATP 90 µM
FES (human) = FES (human) (UniProt P07332); conditions: compound 1.0 µM; ATP 45 µM
HIPK1 (human) = HIPK1 (human) (UniProt Q86Z02); conditions: compound 1.0 µM; ATP 45 µM
[5] = tested on: PRKCH (human), P24723 [V108L/G109R/L392Q]; conditions: compound 1.0 µM; ATP 45 µM
Chain of PRKCH (human), P24723 [V108L/G109R/L392Q] (P24723 whole entry, looked up, stated change not applied): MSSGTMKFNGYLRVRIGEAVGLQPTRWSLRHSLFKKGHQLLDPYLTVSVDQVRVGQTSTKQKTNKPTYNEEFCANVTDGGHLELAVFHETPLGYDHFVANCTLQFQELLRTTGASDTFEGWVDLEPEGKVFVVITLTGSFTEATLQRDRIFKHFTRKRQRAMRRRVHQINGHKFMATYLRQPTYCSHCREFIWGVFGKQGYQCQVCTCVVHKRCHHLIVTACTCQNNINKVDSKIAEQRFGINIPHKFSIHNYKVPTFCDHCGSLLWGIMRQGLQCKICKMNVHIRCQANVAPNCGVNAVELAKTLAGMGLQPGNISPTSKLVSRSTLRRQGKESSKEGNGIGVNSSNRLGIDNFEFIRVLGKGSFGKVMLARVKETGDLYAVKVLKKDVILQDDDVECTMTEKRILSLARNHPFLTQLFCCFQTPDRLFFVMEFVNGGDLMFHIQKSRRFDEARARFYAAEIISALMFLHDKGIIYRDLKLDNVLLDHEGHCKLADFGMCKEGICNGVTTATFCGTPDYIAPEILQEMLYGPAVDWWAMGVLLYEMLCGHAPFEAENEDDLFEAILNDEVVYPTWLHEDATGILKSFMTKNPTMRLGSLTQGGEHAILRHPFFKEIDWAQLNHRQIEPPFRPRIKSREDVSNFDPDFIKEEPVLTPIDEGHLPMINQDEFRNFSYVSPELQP

WNK3 (human) = WNK3 (human) (UniProt Q9BYP7); conditions: compound 1.0 µM; ATP 200 µM
PAK7 (human) = PAK7 (human) (UniProt Q9P286); conditions: compound 1.0 µM; ATP 15 µM
SGK3 (human) = SGK3 (human) (UniProt Q96BR1); conditions: compound 1.0 µM; ATP 155 µM
CHEK1 (human) = CHEK1 (human) (UniProt O14757); conditions: compound 1.0 µM; ATP 90 µM
STK4 (human) = STK4 (human) (UniProt Q13043); conditions: compound 1.0 µM; ATP 90 µM
Chain of STK4 (human) (Q13043 whole entry, looked up): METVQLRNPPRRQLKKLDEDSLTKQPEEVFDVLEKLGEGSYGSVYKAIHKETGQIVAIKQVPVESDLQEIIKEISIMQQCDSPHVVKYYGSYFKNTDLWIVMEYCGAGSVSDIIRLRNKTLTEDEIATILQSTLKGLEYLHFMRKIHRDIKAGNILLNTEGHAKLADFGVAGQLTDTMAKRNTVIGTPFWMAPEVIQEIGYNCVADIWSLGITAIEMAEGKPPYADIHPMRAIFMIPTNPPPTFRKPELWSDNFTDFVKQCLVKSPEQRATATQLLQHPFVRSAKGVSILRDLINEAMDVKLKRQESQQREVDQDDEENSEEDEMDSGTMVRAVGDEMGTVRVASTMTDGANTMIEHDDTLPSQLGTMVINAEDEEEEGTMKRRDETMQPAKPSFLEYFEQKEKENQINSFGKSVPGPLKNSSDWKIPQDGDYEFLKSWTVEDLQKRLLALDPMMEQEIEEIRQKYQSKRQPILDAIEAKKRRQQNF

STK17A (human) = STK17A (human) (UniProt Q9UEE5); conditions: compound 1.0 µM; ATP 10 µM
PTK6 (human) = PTK6 (human) (UniProt Q13882); conditions: compound 1.0 µM; ATP 15 µM
WNK2 (human) = WNK2 (human) (UniProt Q9Y3S1); conditions: compound 1.0 µM; ATP 200 µM
MAPK13 (human) = MAPK13 (human) (UniProt O15264); conditions: compound 1.0 µM; ATP 15 µM
Chain of MAPK13 (human) (O15264 whole entry, looked up): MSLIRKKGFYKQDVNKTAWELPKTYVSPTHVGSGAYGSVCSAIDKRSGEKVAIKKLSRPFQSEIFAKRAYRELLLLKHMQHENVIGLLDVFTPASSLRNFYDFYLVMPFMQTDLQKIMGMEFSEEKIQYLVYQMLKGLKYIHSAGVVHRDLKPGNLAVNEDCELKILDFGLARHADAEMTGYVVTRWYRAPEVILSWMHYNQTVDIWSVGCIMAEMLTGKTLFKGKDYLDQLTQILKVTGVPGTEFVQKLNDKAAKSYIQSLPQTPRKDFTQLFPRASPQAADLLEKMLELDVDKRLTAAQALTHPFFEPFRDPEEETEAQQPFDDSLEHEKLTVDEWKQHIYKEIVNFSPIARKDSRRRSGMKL

Chain of PRKCE (human) (Q02156 whole entry, looked up): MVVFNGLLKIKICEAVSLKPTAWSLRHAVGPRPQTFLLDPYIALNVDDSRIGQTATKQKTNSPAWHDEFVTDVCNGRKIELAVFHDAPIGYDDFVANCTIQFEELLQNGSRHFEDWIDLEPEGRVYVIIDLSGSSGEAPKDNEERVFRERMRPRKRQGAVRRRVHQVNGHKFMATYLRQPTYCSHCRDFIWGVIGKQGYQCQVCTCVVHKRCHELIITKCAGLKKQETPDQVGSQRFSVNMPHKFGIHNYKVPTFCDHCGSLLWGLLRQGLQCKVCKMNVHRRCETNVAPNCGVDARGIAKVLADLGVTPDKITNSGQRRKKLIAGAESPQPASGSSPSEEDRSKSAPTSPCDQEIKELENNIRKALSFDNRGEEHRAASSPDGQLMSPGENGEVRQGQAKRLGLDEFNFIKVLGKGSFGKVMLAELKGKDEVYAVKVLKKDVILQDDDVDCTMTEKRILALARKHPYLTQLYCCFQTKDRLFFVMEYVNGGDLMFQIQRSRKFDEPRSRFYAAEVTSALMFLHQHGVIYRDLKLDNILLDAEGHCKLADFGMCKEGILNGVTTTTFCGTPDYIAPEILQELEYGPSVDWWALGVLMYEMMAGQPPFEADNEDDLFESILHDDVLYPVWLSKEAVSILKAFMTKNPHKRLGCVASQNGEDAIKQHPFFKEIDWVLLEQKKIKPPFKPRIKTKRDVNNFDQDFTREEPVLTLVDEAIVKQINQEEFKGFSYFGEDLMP

residual activity (IKBKB (human)): 98% | residual activity (PRKCE (human)): 103% | residual activity (PTK2B (human)): 101% | residual activity (MAPK11 (human)): 113% | residual activity (STK33 (human)): 90% | residual activity (EPHA1 (human)): 65% | residual activity (SRPK1 (human)): 102% | residual activity (FRK (human)): 104% | residual activity (PRKCG (human)): 101% | residual activity (EPHA3 (human)): 96% | residual activity (FLT3 (human)): 26% | residual activity (CDK5 CDK5R1 p35 (human)): 93% | residual activity (PRKCD (human)): 92% | residual activity (PRKCA (human)): 105% | residual activity (KIT (human)): 78% | residual activity [1]: 83% | residual activity [2]: 88% | residual activity (FER (human)): 56% | residual activity (NLK (human)): 103% | residual activity [3]: 114% | residual activity (ALK (human)): 0% | residual activity (PRKG1 (human)): 6% and -14% | residual activity (MAP3K5 (human)): 98% | residual activity (MINK1 (human)): 105% | residual activity (RPS6KA3 KD1 KD2 (human)): 76% | residual activity [4]: 112% | residual activity (FES (human)): 113% | residual activity (HIPK1 (human)): 116% | residual activity [5]: 126% | residual activity (WNK3 (human)): 78% | residual activity (PAK7 (human)): 101% | residual activity (SGK3 (human)): 94% | residual activity (CHEK1 (human)): 98% | residual activity (STK4 (human)): 80% | residual activity (STK17A (human)): 0% | residual activity (PTK6 (human)): 103% | residual activity (WNK2 (human)): 126% | residual activity (MAPK13 (human)): 98%
SMILES: CN(C)S(=O)(=O)Nc1ccc2ccc3ncc(-c4cnn(C)c4)cc3c(=O)c2c1
